US10059741B2 (priority 2015, dated 2018)
Several values for one entry are separate records, joined by “and”; a condition that tells them apart may be missing. Equal values may be shown once. Read-outs that look alike come from different tables or passages of the source. Bridge positions count the residues as written; N and C are the ends. Square brackets hold non-standard residues; d marks the D form. Peptide text beside a SMILES is read from it. R8 = C=CCCCCCC[C@@](C)(N)C(=O)O; S5 = C=CCCC[C@](C)(N)C(=O)O; Nle = CCCC[C@H](N)C(=O)O; Aib = CC(C)(N)C(=O)O

Columns and labels:
[1] = tested on: H1N1 California/07/2009; experiment: microbe, parasite or virus in culture; assay type: cell-based, influenza A virus
[2] = in vitro; settings: dog
[3] = tested on: H3N2 Perth/16/2009; experiment: microbe, parasite or virus in culture; assay type: cell-based, influenza A virus
[4] = tested on: H3N2 Perth/16/2009; experiment: microbe, parasite or virus in culture; assay type: cell-based, influenza A virus; remark: listed apart in the source
[5] = tested on: H1N1 California/07/2009; experiment: microbe, parasite or virus in culture; assay type: cell-based, influenza A virus; remark: listed apart in the source
[6] = read-out: EC50 (μM) H1N1 California/07/2009
[7] = CC50 (μM) H1N1 California/07/2009, Cell cytotoxicity (CC), run with H1N1 California/07/2009
[8] = CC50 (μM) H3N2 Perth/16/2009, Cell cytotoxicity (CC), run with H3N2 Perth/16/2009
[9] = CC50, MDCK cells, run with Influenza A H1N1 California/07/2009, Neutral Red
[10] = CC50, MDCK cells, run with Influenza A H1N1 California/07/2009, Visual
[11] = read-out: EC50 (μM) H3N2 Perth/16/2009

| Compound | EC50 [1, 6] [µM] | CC50 [2, 7] [µM] | CC50 [2, 8] [µM] | CC50 [2, 9] [µM] | CC50 [2, 10] [µM] | EC50 [3, 11] [µM] | EC50 [4, 11] [µM] | EC50 ([5]; read-out: EC50) | EC50 [5, 6] [µM] | further results |
| --- | --- | --- | --- | --- | --- | --- | --- | --- | --- | --- |
| CCCC[C@H](NC(C)=O)C(=O)N[C@@H](CC(=O)O)C(=O)N[C@H](C(=O)N[C@@H](CC(N)=O)C(=O)N[C@@]1(C)CCCC=CCCC[C@@](C)(C(=O)N[C@@H](CC(C)C)C(=O)N[C@@H](CCCCN)C(=O)N[C@H](C(=O)N2CCC[C@H]2C(=O)NC(C)(C)C(=O)N[C@@H](CCC(N)=O)C(N)=O)C(C)C)NC(=O)[C@H](CC(C)C)NC(=O)[C@H](CC(C)C)NC(=O)[C@H]([C@@H](C)O)NC1=O)C(C)C [SP-3] (Ac-[Nle]DVN[S5]TLL[S5]LKVP[Aib]Q-NH2; staple 5-9) | > 50 | > 100 | > 100 | > 100 | > 100 | 25 to 50 | > 50 | > 100 µM and 73 µM | > 50 | – |
| CC(=O)N[C@@H](Cc1ccccc1)C(=O)N[C@@H](CC(=O)O)C(=O)N[C@H](C(=O)N[C@@H](CC(N)=O)C(=O)N[C@@]1(C)CCCC=CCCC[C@@](C)(C(=O)N[C@@H](CC(C)C)C(=O)N[C@@H](CCCCN)C(=O)N[C@H](C(=O)NC(C)(C)C(=O)N[C@@H](C)C(=O)N[C@@H](CCC(N)=O)C(N)=O)C(C)C)NC(=O)[C@H](CC(C)C)NC(=O)[C@H](CC(C)C)NC(=O)[C@H]([C@@H](C)O)NC1=O)C(C)C [SP-4] (Ac-FDVN[S5]TLL[S5]LKV[Aib]AQ-NH2; staple 5-9) | > 50 | > 100 | > 100 | > 100 | > 100 | 25 to 50 | 25 to 50 | – | > 50 | – |
| CCCC[C@H](NC(C)=O)C(=O)N[C@@H](CC(=O)O)C(=O)N[C@H](C(=O)N[C@@H](CC(N)=O)C(=O)N[C@@]1(C)CCCC=CCCC[C@@](C)(C(=O)N[C@@H](CC(C)C)C(=O)N[C@@H](CCCCN)C(=O)N[C@H](C(=O)NC(C)(C)C(=O)N[C@@H](C)C(=O)N[C@@H](C)C(N)=O)C(C)C)NC(=O)[C@H](CC(C)C)NC(=O)[C@H](CC(C)C)NC(=O)[C@H]([C@@H](C)O)NC1=O)C(C)C [SP-2] (Ac-[Nle]DVN[S5]TLL[S5]LKV[Aib]AA-NH2; staple 5-9) | > 50 | > 100 | > 100 | > 100 | > 100 | 10 to 25 | 25 to 50 | 51 µM and 32 µM | > 50 | – |
| CCCC[C@H](NC(C)=O)C(=O)N[C@@H](CC(=O)O)C(=O)N[C@H](C(=O)N[C@@H](CC(N)=O)C(=O)N[C@]1(C)CCCCCCC=CCCC[C@@](C)(C(=O)N[C@@H](C)C(=O)N[C@@H](C)C(=O)N[C@@H](CCC(N)=O)C(=O)N[C@@H](C)C(=O)N[C@@H](C)C(N)=O)NC(=O)[C@H](C)NC(=O)[C@H](CC(C)C)NC(=O)[C@H](Cc2ccccc2)NC(=O)[C@H](CC(C)C)NC(=O)[C@H](CC(C)C)NC(=O)[C@H]([C@@H](C)O)NC1=O)C(C)C [SP-24] (Ac-[Nle]DVN[R8]TLLFLA[S5]AAQAA-NH2; staple 5-12) | – | > 100 | > 100 | – | – | – | – | – | – | EC50 ([1]; Cytopathic effect/toxicity (Visual), MDCK cells, read-out: EC50 (μM) H1N1 California/07/2009): 1.5 to 10 µM; EC50 ([1]; Influenza A H1N1 California/07/2009, Drug Assay Visual, read-out: EC50): 4.3 µM; CC50 ([2]; CC50, run with Influenza A H1N1 California/07/2009, Neutral Red): > 100 µM; CC50 ([2]; CC50, run with Influenza A H1N1 California/07/2009, Visual): > 100 µM; CC50 ([2]; CC50, run with Influenza A H3N2 Perth/16/2006 (so in the source), Neutral Red): > 100 µM; CC50 ([2]; CC50, run with Influenza A H3N2 Perth/16/2006 (so in the source), Visual): > 100 µM; EC50 ([3]; Cytopathic effect/toxicity (Visual), MDCK cells, read-out: EC50 (μM) H3N2 Perth/16/2009): 1.5 to 10 µM; EC50 ([3]; Influenza A H3N2 Perth/16/2006 (so in the source), Drug Assay Visual, read-out: EC50): 2.5 µM; EC50 ([4]; Cytopathic effect/toxicity (Neutral red), MDCK cells, read-out: EC50 (μM) H3N2 Perth/16/2009): 1.5 to 10 µM; EC50 ([4]; Influenza A H3N2 Perth/16/2006 (so in the source), Drug Assay Neutral Red, read-out: EC50): 3.4 µM; EC50 ([5]; Cytopathic effect/toxicity (Neutral red), MDCK cells, read-out: EC50 (μM) H1N1 California/07/2009): 1.5 to 10 µM; EC50 ([5]; Influenza A H1N1 California/07/2009, Drug Assay Neutral Red, read-out: EC50): 6.9 µM |
